Legend:
[1] = test system: RAS-mutant NSCLC cell lines; experiment: Induction of apoptosis (caspase 3/7 activation) in panel of RAS-mutant NSCLC cell lines; format: cell-based; conditions: for Response Rate (sensitivity/total lines tested), Cell Apoptosis (capsase 3/7): Ras mut NSCLC cell lines, caspase 3/7 activation, 24 hours of treatment
Procedure: (§1) A panel of 24 non-small cell lung carcinoma (NSCLC) cell lines harboring RAS mutations was analyzed for genomic alterations, gene expression profiling and protein phosphorylation in MAPK and PI3K pathways. Inhibition of cell growth and induction of apoptosis were determined by CellTiter-Glo® and caspase 3/7 activation assays after 72 and 24 hours of treatment, respectively.

[2] = test system: RAS-mutant NSCLC cell lines; experiment: Inhibition of cell growth (CellTiter-Glo) in panel of RAS-mutant NSCLC cell lines; conditions: for Response Rate (sensitivity/total lines tested), Cell growth inhibition: Ras mut NSCLC cell lines, CellTiter-Glo, 72 hours of treatment; for Single agent activity (in words): agent alone, cell growth inhibition and apoptosis
Procedure: Cells are plated in 384-well plates at 500 cells/well in culture media appropriate for each cell type, supplemented with 10% FBS and 1% penicillin/streptomycin, and incubated overnight at 37° C., 5% CO2. Cells are treated in a grid manner with dilution of Compound A^2 (20 dilutions, including no compound, of 2-fold dilutions starting from 1-20 μM depending of compound) from left to right on 384-well plate and also treated with Compound B^2 (20 dilutions, including no compound, of 2-fold dilutions starting from 1-20 μM depending of compound) from top to bottom on 384-well plate and incubated as above for a further 72 hours. In some instances compounds are added in a staggered manner and incubation time can be extended up to 7 days. Cell growth is measured using CellTiter-Glo® reagent according to the manufacturer's protocol and signals are read on a PerkinElmer EnVision™ reader set for luminescence mode with a 0.5-second read.
Results are expressed as a percentage of the t=0 value and plotted against compound(s) concentration. The t=0 value is normalized to 100% and represents the number of cells present at the time of compound addition. The cellular response is determined for each compound and/or compound combination using a 4- or 6-parameter curve fit of cell viability against concentration using the IDBS XLfit plug-in for Microsoft Excel software and determining the concentration required for 50% inhibition of cell growth (gIC50). Background correction is made by subtraction of values from wells containing no cells.
as §1

Row | Molecule | Response Rate (sensitivity/total lines tested), Cell Apoptosis (capsase 3/7) [1] | Response Rate (sensitivity/total lines tested), Cell growth inhibition [2] | Single agent activity (in words) ([2]; RAS-mutant NSCLC lines) | Apoptosis (in words) ([1]; RAS-mutant NSCLC lines, single agent) | Cell growth inhibition (in words) ([2]; RAS-mutant NSCLC lines)
1 | Cc1nc(Nc2ncc(C(=O)Nc3c(C)cccc3Cl)s2)cc(N2CCN(CCO)CC2)n1 [Dasatinib] | 0% (0/10) | 20% (2/10) | – | – | –
2 | Cn1ncc(Cl)c1-c1cc(C(=O)N[C@H](CN)Cc2cccc(F)c2)sc1Cl [AKT inhibitor, N-{(1S)-2-amino-1-[(3-fluorophenyl)methyl]ethyl}-5-chloro-4-(4-chloro-1-methyl-1H-pyrazol-5-yl)-2-thiophenecarboxamide] | 0% (0/9) | 6% (1/18) | little or no activity | – | –
3 | COc1ncc(-c2ccc3nccc(-c4ccnnc4)c3c2)cc1NS(=O)(=O)c1ccc(F)cc1F [PI3k/mTOR inhibitor, 2,4-difluoro-N-{2-(methyloxy)-5-[4-(4-pyridazinyl)-6-quinolinyl]-3-pyridinyl}benzenesulfonamide] | 6% (1/16) | 69% (9/13) | – | little apoptosis | potently inhibited cell growth
4 | C#Cc1cccc(Nc2ncnc3cc(OCCOC)c(OCCOC)cc23)c1 [Erlotinib] | 0% (0/24) | 0% (0/24) | little or no activity | – | –
5 | Nc1nc2[nH]cc(CCc3ccc(C(=O)N[C@@H](CCC(=O)O)C(=O)O)cc3)c2c(=O)[nH]1 [Pemtrexed] | – | 38% (4/9) | – | – | –
6 | dihydroxy-12-[(2R)-1-[(1S,3R,4R)-4-(2-hydroxyethoxy)-3-methoxycyclohexyl]propan-2-yl]-19,30-dimethoxy-15,17,21,23,29,35-hexamethyl-11,36-dioxa-4-azatricyclo[30.3.1.0^4.9]hexatriaconta-16,24,26,28-tetraene-2,3,10,14,20-pentone [Everolimus] | 0% (0/24) | 8% (2/24) | little or no activity | – | –
